Assay results as given in ChEMBL document CHEMBL1149090, “Synthesis of a potent transition-state inhibitor of 5'-deoxy-5'-methylthioadenosine phosphorylase” (J Med Chem, 2004).
Active and inactive are the calls of the source. The rule behind the calls is not given here.

What was measured:
MOLT-4 [1] = assay: Tested for inhibition of MOLT-4 cells proliferation up to 10 uM; No Inhibition; assay type: functional, cell-based; conditions: Homo sapiens
MOLT-4 [2] = assay: Tested for inhibition of MOLT-4 cells proliferation in the presence of 100 nM methotrexate and 10 uM of the compound; not significant; assay type: functional, cell-based; conditions: Homo sapiens
MOLT-4 [3] = assay: Tested for inhibition of MOLT-4 cells proliferation in the presence of 3 uM MTA; assay type: functional, cell-based; conditions: Homo sapiens
[4] = target: T1, S-methyl-5'-thioadenosine phosphorylase (Homo sapiens, UniProt Q13126); assay: Inhibitory concentration against Methylthioadenosine phosphorylase
T1 sequence (Q13126 whole entry): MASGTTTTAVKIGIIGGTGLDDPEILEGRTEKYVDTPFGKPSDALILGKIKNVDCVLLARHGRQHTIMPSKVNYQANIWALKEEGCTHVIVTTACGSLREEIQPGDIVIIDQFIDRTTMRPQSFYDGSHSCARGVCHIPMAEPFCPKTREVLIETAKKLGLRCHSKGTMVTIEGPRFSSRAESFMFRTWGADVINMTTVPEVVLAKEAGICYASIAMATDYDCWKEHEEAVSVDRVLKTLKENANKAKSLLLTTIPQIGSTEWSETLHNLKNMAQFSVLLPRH

IC50 (MOLT-4 [3]): 1000 nM
IC50 [4]: 1.2 nM
Compound: CSC[C@H]1N[C@@H](c2c[nH]c3c(N)ncnc23)[C@H](O)[C@@H]1O
inhibition (MOLT-4 [1]): inactive
inhibition (MOLT-4 [2]): inactive
